Experimental findings from ChEMBL document CHEMBL1201862, “PubChem BioAssay data set” (2004) are described below.

Test systems include BT-549; CAKI-1; CCRF-CEM; DU-145; HCT-116; HCT-15; Hs-578T; KM12; MDA-MB-231; OVCAR-5; RPMI-8226; RXF 393; SF-268; SK-OV-3; SR; T47D; TK-10; U-251; UACC-257; UO-31.
Experiment in all cases: NCI tumour cell line growth inhibition, 48 h

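The compound was tested at five concentrations on cells cultured in 96-well plates, with a 48-hour exposure period. GI50 marks 50% less growth.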 Activity calls are given as the source filed them. No stated cut-off is given here; in the data, active = GI50 up to about 1.1 µM and inactive = higher.

Take `O=C1C=CC(=O)c2c1cc([N+](=O)[O-])c1ccoc21`: the GI50 is 16.9 µM (inactive) in the experiment on BT-549; 1.6 µM (inactive) with CAKI-1; 2.1 µM (inactive) with CCRF-CEM; 9.06 µM (inactive) in the experiment with DU-145; 6.03 µM (inactive) with HCT-116; 23.3 µM in the experiment on HCT-15. In addition, the GI50 is 28.1 µM (inactive) in the experiment with Hs-578T; 15.9 µM (inactive) in the experiment with KM12; 21.3 µM (inactive) in the experiment with MDA-MB-231; 18.5 µM (inactive) in the experiment with OVCAR-5; 4.37 µM (inactive) in the experiment on RPMI-8226; 1.97 µM (inactive) in the experiment on RXF 393. Further, the GI50 was 26.2 µM (inactive) in the experiment on SF-268; 20.4 µM (inactive) with SK-OV-3; 5.37 µM (inactive) with SR; 2.8 µM (inactive) in the experiment on T47D; 2.18 µM (inactive) with TK-10; 18.5 µM (inactive) in the experiment on U-251. Besides, the GI50 was 10.7 µM (inactive) in the experiment with UACC-257 and 3.01 µM (inactive) in the experiment on UO-31.
